Publication PMC4445981, “The glutamate transport inhibitor DL-Threo-β-Benzyloxyaspartic acid (DL-TBOA) differentially affects SN38- and oxaliplatin-induced death of drug-resistant colorectal cancer cells” (BMC Cancer, 2015)
Where two headings read alike, the source gives them in different places. One block for each molecule: values may come before it.

Columns and labels:
[1] = tested on: [3H]-D-Asp uptake (glutamate transporter activity) in HCT116-PAR cells; test: [3H]-D-Asp uptake assay, HCT116-PAR; type: cell-based, human
Description: (§1) We therefore next determined glutamate transporter activity (as uptake of the substrate [^3H]-D-Asp following a 6-min incubation in buffer supplemented with a tracer concentration of 100 nM [^3H]-D-Asp). […] To determine which transporter(s) was responsible for the [^3H]-D-Asp uptake, we assessed the effect of DL-TBOA, a nonselective inhibitor of EAATs, and UCPH-101, a specific SLC1A3 inhibitor [16, 28, 29]. […] Basal [^3H]-D-Asp uptake was decreased by about 60 % in SN38-resistant compared to parental HCT116 cells, whereas that in SN38-resistant LoVo cells was nearly tripled compared to parental LoVo cells.
(§2) The [^3H]-D-Asp uptake assay was performed essentially as in [30]. Briefly, cells were split into poly-D-lysine-coated white 96-well plates (PerkinElmer). A similar number of cells were seeded for HCT116 parental, HCT116-SN38 and HCT116-Oxa cell lines (7 × 10^4 cells/well) and LoVo parental, Lovo-SN38 and Lovo-Oxa cell lines (6 × 10^4 cells/well). 16–24 h later, culture medium was aspirated, and cells were washed once with 100 μl assay buffer (Hank’s Buffered Saline Solution supplemented with 20 mM HEPES, 1 mM CaCl2 and 1 mM MgCl2, pH 7.4). 50 μl assay buffer supplemented with 100 nM [^3H]-D-Asp and test compounds as indicated was added, and the plate was incubated at 37 °C for 6 min. Non-specific [^3H]-D-Asp uptake was determined in wells with 3 mM L-glutamate. The assay mixture was quickly removed, and wells were washed with 2 × 100 μl ice-cold assay buffer, followed by 150 μl Microscint™20 scintillation fluid (PerkinElmer). The plate was shaken for 1 h and counted in a Wallac 1450 MicroBeta Trilux scintillation counter (GMI, Ramsey, MN).

[2] = tested on: [3H]-D-Asp uptake (glutamate transporter activity) in LoVo-PAR cells; test: [3H]-D-Asp uptake assay, LoVo-PAR; type: cell-based, human
Description: as §1, §2

[3] = tested on: [3H]-D-Asp uptake (glutamate transporter activity) in HCT116-Oxa cells; test: [3H]-D-Asp uptake assay, HCT116-Oxa; type: cell-based, human
Description: as §1, §2

[4] = tested on: [3H]-D-Asp uptake in HCT116 and LoVo cells (parental and resistant); test: [3H]-D-Asp uptake assay, summary over cell lines; type: cell-based, human
Description: as §1, §2

[5] = tested on: [3H]-D-Asp uptake (glutamate transporter activity) in LoVo-Oxa cells; test: [3H]-D-Asp uptake assay, LoVo-Oxa; type: cell-based, human
Description: as §1, §2

[6] = tested on: [3H]-D-Asp uptake (glutamate transporter activity) in HCT116-SN38 cells; test: [3H]-D-Asp uptake assay, HCT116-SN38; type: cell-based, human
Description: as §1, §2

[7] = tested on: [3H]-D-Asp uptake (glutamate transporter activity) in LoVo-SN38 cells; test: [3H]-D-Asp uptake assay, LoVo-SN38; type: cell-based, human
Description: as §1, §2

SLC1A3 = conditions: cited from earlier work
SLC1A1 = conditions: at concentration up to > 400 fold higher than SLC1A3 IC50; cited from earlier work
[8] = Homo sapiens, read-out: IC50, [3H]-D-Asp uptake
[9] = Homo sapiens, read-out: pIC50 ± S.E.M., [3H]-D-Asp uptake (converted)

IC50 [1, 8]: 21 µM | IC50 [1, 9]: 21.4 µM | IC50 [2, 8]: 26 µM | IC50 [2, 9]: 25.7 µM | IC50 [3, 8]: 21 µM | IC50 [3, 9]: 21.4 µM | IC50 [5, 8]: 23 µM | IC50 [5, 9]: 22.9 µM | IC50 [6, 8]: 21 µM | IC50 [6, 9]: 21.4 µM | IC50 [7, 8]: 28 µM | IC50 [7, 9]: 28.8 µM
Structure (SMILES): N[C@@H](CCC(=O)O)C(=O)O [L-Glu, L-glutamate]
IC50 ([4]; Homo sapiens, read-out: IC50 values, competitive inhibition of [3H]-D-Asp uptake): 20 to 30 µM

pIC50 ± S.E.M., [3H]-D-Asp uptake ([1]; HCT116-PAR, 100 nM [3H]-D-Asp, 6 min, 37 °C): < 4.0 | IC50 ([1]; HCT116-PAR, 100 nM [3H]-D-Asp, 6 min, 37 °C, read-out: IC50, [3H]-D-Asp uptake): > 100 µM | pIC50 ± S.E.M., [3H]-D-Asp uptake ([2]; LoVo-PAR, 100 nM [3H]-D-Asp, 6 min, 37 °C): < 4.0 | IC50 ([2]; LoVo-PAR, 100 nM [3H]-D-Asp, 6 min, 37 °C, read-out: IC50, [3H]-D-Asp uptake): > 100 µM | pIC50 ± S.E.M., [3H]-D-Asp uptake ([3]; HCT116-Oxa, 100 nM [3H]-D-Asp, 6 min, 37 °C): < 4.0 | IC50 ([3]; HCT116-Oxa, 100 nM [3H]-D-Asp, 6 min, 37 °C, read-out: IC50, [3H]-D-Asp uptake): > 100 µM | pIC50 ± S.E.M., [3H]-D-Asp uptake ([5]; LoVo-Oxa, 100 nM [3H]-D-Asp, 6 min, 37 °C): < 4.0 | IC50 ([5]; LoVo-Oxa, 100 nM [3H]-D-Asp, 6 min, 37 °C, read-out: IC50, [3H]-D-Asp uptake): > 100 µM | pIC50 ± S.E.M., [3H]-D-Asp uptake ([6]; HCT116-SN38, 100 nM [3H]-D-Asp, 6 min, 37 °C): < 4.0 | IC50 ([6]; HCT116-SN38, 100 nM [3H]-D-Asp, 6 min, 37 °C, read-out: IC50, [3H]-D-Asp uptake): > 100 µM | pIC50 ± S.E.M., [3H]-D-Asp uptake ([7]; LoVo-SN38, 100 nM [3H]-D-Asp, 6 min, 37 °C): < 4.0 | IC50 ([7]; LoVo-SN38, 100 nM [3H]-D-Asp, 6 min, 37 °C, read-out: IC50, [3H]-D-Asp uptake): > 100 µM
Structure (SMILES): COc1ccc(C2C(C#N)=C(N)OC3=C2C(=O)CC(c2cccc4ccccc24)C3)cc1 (stereo not shown) [UCPH]
IC50 values for SLC1A3 (SLC1A3): high-nanomolar | activity at SLC1A1 (SLC1A1): inactive | effect on basal [3H]-D-Asp uptake ([4]; all cell lines, concentrations up to 100 μM): essentially unaffected
